Where two headings read alike, the source gives them in different places.
Tests used:
[1] = tested on: Human kidney 2 (HK2) cells; test: Cytotoxicity, HK2 LDH assay
Procedure, shortened: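 HK2 cells were seeded at 2000 per well in DMEM/F12 with 10% FBS and left to attach for 24 h at 37 °C, 5% CO2. They were then exposed for 24 h to 3-fold peptide dilutions starting from 600 μM solutions in quadruplicate. LDH release was read at 450 nm, and CC50 was fitted from dose-response curves.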

Neisseria gonorrhoeae = test: MIC determination, Neisseria gonorrhoeae; type: cell-based
Procedure, shortened: (§1)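 Mid-log cultures grown in Mueller Hinton broth at 37° C were tested by 2-fold broth microdilution at 5×10^5 CFU/mL final. Compounds were dissolved in water and tested over a final range of 32 to 0.015 μg/mL.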

K. pneumoniae ATCC 13883 = tested on: K. pneumoniae ATCC 13883
Procedure, shortened: as §1

[2] = tested on: S. aureus ATCC 25923, MSSA
Procedure, shortened: as §1

[3] = tested on: P. aeruginosa GN_043, PmxR
Procedure, shortened: as §1

A. baumannii GN_093 PmxR = tested on: A. baumannii GN_093 PmxR
Procedure, shortened: as §1

E. coli ATCC 25922 = tested on: E. coli ATCC 25922
Procedure, shortened: as §1

[4] = tested on: K. pneumoniae ATCC BAA-2146, NDM-1 pos
Procedure, shortened: as §1

[5] = tested on: K. pneumoniae GN_102 PmxR
Procedure, shortened: as §1

[6] = tested on: K. pneumoniae ATCC 700603, MDR
Procedure, shortened: as §1

HepG2 cells = test: Cytotoxicity, resazurin assay, HepG2
Procedure, shortened: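 Cells (4000/well, pre-attached 24 h) then received 5 μM resazurin for 2 h, with fluorescence measured at ex 560/em 590.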

Question: How did the CC50 ([1]; read-out: HK2 (LDH) CC50, HK2 cells, LDH) turn out when “polymyxin B sulfate [PolymyxinB, reference compound]” was run?
Answer: 125 µM

Question: What about the CC50 ([1]; read-out: HK2 (LDH)-CC50, HK2, LDH, 24 h) of the same substance?
Answer: 125 µM

Question: What about the CC50 ([1]; read-out: HK2 (LDH)-CC50, HK2 cells, LDH) of the same substance?
Answer: 125 µM

Question: What about the CC50 ([1]; read-out: HK2 (LDH)-CC50, Table 5, HK2 cells, LDH) of the same substance?
Answer: 125 µM

Question: And the CC50 ([1]; read-out: HK2 (LDH)-CC50, Table 6, HK2 cells, LDH)?
Answer: 125 µM

Question: And the “MIC N. gonorrhoeae F89” value (Neisseria gonorrhoeae; strain F89)?
Answer: 9.38 µg/mL

Question: And the “MIC N. gonorrhoeae FA19 ATCC BAA-1838” value (Neisseria gonorrhoeae; strain FA19 ATCC BAA-1838)?
Answer: 12.5 µg/mL

Question: And the “MIC N. gonorrhoeae FA1090 A25 ATCC 700825” value (Neisseria gonorrhoeae; strain FA1090 A25 ATCC 700825)?
Answer: 10.42 µg/mL

Question: And the “MIC N. gonorrhoeae H041” value (Neisseria gonorrhoeae; strain H041)?
Answer: 8.33 µg/mL

Question: What about the “MIC K. pneumoniae ATCC 13883” value (K. pneumoniae ATCC 13883) of the same substance?
Answer: 1 µg/mL

Question: What about the “MIC K. pneumoniae ATCC 13883” value (K. pneumoniae ATCC 13883; K. pneumoniae ATCC 13883) of the same substance?
Answer: 1 µg/mL

Question: What about the “MIC, K. pneumoniae ATCC 13883” value (K. pneumoniae ATCC 13883; Table 5) of the same substance?
Answer: 1 µg/mL

Question: And the “MIC, K. pneumoniae ATCC 13883” value (K. pneumoniae ATCC 13883; Table 6)?
Answer: 1 µg/mL

Question: And the “MIC S. aureus ATCC 25923, MSSA” value [2]?
Answer: >64 µg/mL

Question: What about the “MIC S. aureus ATCC 25923, MSSA” value ([2]; S. aureus ATCC 25923, MSSA) of the same substance?
Answer: >64 µg/mL

Question: What about the “MIC, S. Aureus ATCC 25923, MSSA” value ([2]; Table 5) of the same substance?
Answer: >64 µg/mL

Question: What about the “MIC, S. aureus ATCC 25923, MSSA” value ([2]; Table 6) of the same substance?
Answer: >64 µg/mL

Question: And the “MIC P. aeruginosa GN_043, PmxR” value [3]?
Answer: 64 µg/mL

Question: What about the “MIC P. aeruginosa GN_043, PmxR” value ([3]; P. aeruginosa GN_043, PmxR) of the same substance?
Answer: 64 µg/mL

Question: And the “MIC, P. aeruginosa FADDI-PA070, PmxR” value ([3]; Table 5, polymyxin-resistant)?
Answer: 64 µg/mL

Question: What about the “MIC P. aeruginosa GN_043, PmxR” value ([3]; Table 6, polymyxin-resistant) of the same substance?
Answer: 64 µg/mL

Question: And the “MIC P. aeruginosa GN_043, PmxR” value ([3]; polymyxin-resistant)?
Answer: 64 µg/mL

Question: What about the “MIC, P. aeruginosa FADDI-PA070, PmxR” value ([3]; strain name as in Table 11) of the same substance?
Answer: 64 µg/mL

Question: What about the “MIC A. baumannii GN_093 PmxR” value (A. baumannii GN_093 PmxR) of the same substance?
Answer: 64 µg/mL

Question: And the “MIC A. baumannii GN_093 PmxR” value (A. baumannii GN_093 PmxR; A. baumannii GN_093 PmxR)?
Answer: 64 µg/mL

Question: What about the “MIC, A. baumannii Cl Ptyela 10073 4512:2, PmxR” value (A. baumannii GN_093 PmxR; Table 5, polymyxin-resistant) of the same substance?
Answer: 64 µg/mL

Question: And the “MIC A. baumannii GN_093 PmxR” value (A. baumannii GN_093 PmxR; Table 6, polymyxin-resistant)?
Answer: 64 µg/mL

Question: What about the “MIC A. baumannii GN_093 PmxR” value (A. baumannii GN_093 PmxR; polymyxin-resistant) of the same substance?
Answer: 64 µg/mL

Question: And the “MIC A. baumannii Cl Ptyela 10073 4512:2, PmxR” value (A. baumannii GN_093 PmxR; strain name as in Table 11)?
Answer: 64 µg/mL

Question: What about the “MIC E. coli ATCC 25922” value (E. coli ATCC 25922) of the same substance?
Answer: 0.25 µg/mL

Question: And the “MIC E. coli ATCC 25922” value (E. coli ATCC 25922; E. coli ATCC 25922)?
Answer: 0.25 µg/mL

Question: And the “MIC, E. coli ATCC 25922” value (E. coli ATCC 25922; Table 5)?
Answer: 0.25 µg/mL

Question: And the “MIC, E. coli ATCC 25922” value (E. coli ATCC 25922; Table 6)?
Answer: 0.25 µg/mL

Question: And the “MIC K. pneumoniae ATCC BAA-2146, NDM-1 pos” value [4]?
Answer: 0.25 µg/mL

Question: What about the “MIC K. pneumoniae ATCC BAA-2146, NDM-1 pos” value ([4]; K. pneumoniae ATCC BAA-2146, NDM-1 pos) of the same substance?
Answer: 0.25 µg/mL

Question: And the “MIC, K. pneumoniae ATCC BAA-2146, NDM-1 pos” value ([4]; Table 5)?
Answer: 0.25 µg/mL

Question: And the “MIC, K. pneumoniae ATCC BAA-2146, NDM-1 pos” value ([4]; Table 6)?
Answer: 0.25 µg/mL

Question: What about the “MIC K. pneumoniae GN_102 PmxR” value [5] of the same substance?
Answer: 64 µg/mL

Question: And the “MIC K. pneumoniae GN_102 PmxR” value ([5]; K. pneumoniae GN_102 PmxR)?
Answer: 64 µg/mL

Question: What about the “MIC, K. pneumoniae Cl Koprana 10065 0661:1, PmxR” value ([5]; Table 5, polymyxin-resistant) of the same substance?
Answer: 64 µg/mL

Question: What about the “MIC K. pneumoniae GN_102 PmxR” value ([5]; Table 6, polymyxin-resistant) of the same substance?
Answer: 64 µg/mL

Question: And the “MIC K. pneumoniae GN_102 PmxR” value ([5]; polymyxin-resistant)?
Answer: 64 µg/mL

Question: And the “MIC K. pneumoniae Cl Koprana 10065 0661:1 PmxR” value ([5]; strain name as in Table 11)?
Answer: 64 µg/mL

Question: And the “MIC K. pneumoniae ATCC 700603, MDR” value [6]?
Answer: 0.5 µg/mL

Question: And the “MIC K. pneumoniae ATCC 700603, MDR” value ([6]; K. pneumoniae ATCC 700603, MDR)?
Answer: 0.5 µg/mL

Question: What about the “MIC, K. pneumoniae ATCC 700603, MDR” value ([6]; Table 5) of the same substance?
Answer: 0.5 µg/mL

Question: What about the “MIC, K. pneumoniae ATCC 700603, MDR” value ([6]; Table 6) of the same substance?
Answer: 0.5 µg/mL

Question: And the CC50 (HepG2 cells; read-out: Hep G2-CC50, HepG2, 24 h)?
Answer: > 300 µM

Question: What about the CC50 (HepG2 cells; read-out: Hep G2-CC50, HepG2 cells) of the same substance?
Answer: > 300 µM

Question: And the CC50 (HepG2 cells; read-out: Hep G2-CC50, Table 5, HepG2 cells)?
Answer: > 300 µM

Question: What about the CC50 (HepG2 cells; read-out: Hep G2-CC50, Table 6, HepG2 cells) of the same substance?
Answer: > 300 µM

Question: And the CC50 (HepG2 cells; read-out: Hep G2 CC50, HepG2 cells)?
Answer: > 300 µM
